The source of these data is US7122326B2 (Universite Louis Pasteur, priority 2001, dated 2006).

Entries after “also recorded” stand apart in the source; their conditions may differ. Like-named read-outs stand apart in the source and are kept apart here.

Data set [1] has as its system glutamate release in the frontal cortex. In words: Frontal extracellular glutamate release after retrodialysis of XA. Particulars: rat, in vivo. The procedure: Amino acids contained in 15 μl of dialysate were separated according to their hydrophobicity by reverse phase high performance liquid chromatography (HPLC). […] The mobile phase was composed of a binary gradient between solution A: 0.05 M NaH2PO4 (Roth) 80% (pH 4.8 adjusted with 10 N NaOH), methanol 20% (Chromanorm, Prolabo); and solution B: 0.05 M NaH2PO4 20% (pH 4.8 ajusted with 10 N NaOH), methanol 80% and THF 5%. Glutamate and GABA were measured by fluorimetric detection at an excitation wavelength of 345 nm and an emission wavelength of 455 nm after derivatization. Chromatogram acquisition and quantitative data analysis were done with Millenium software (Waters).
The samples were derivatized by mixing 15 μl of dialysate with 15 μl of the following derivatization solution: 7.5 mg o-phthaldialdehyde (Sigma) in 4.5 ml of 0.1 M sodium tetraborate pH 9.3, 500 μl of methanol and 10 μl of 3-mercapto-propionic acid (Sigma). The elution rate was 0.8 ml/min at 35° C. in a series of steps: 90% A and 10% B at 0 min; 40% A and 60% B to 15 min (linear gradient); 40% A and 60% B to 19 min (isocratic gradient); 0% A and 100% B to 19.1 min; 0% A and 100% B to 24 min (isocratic gradient); 90% A and 10% B to 24.1 min (isocratic gradient) and 90% A and 10% B to 30 min. […]

The subject of data set [2] is rat. In words: Rotations in rats with unilateral 6-OHDA lesions. It is filed as in vivo. The following applies: rat, in vivo.
In data set [3] the test system is xanthurenic acid receptor(s). It is filed as cell-based.
The next data set deals with XA transport system. The experiment in a line: XA transport in differentiated NCB-20 cells. It is filed as cell-based. The procedure: The cell culture was prepared by using a culture dish of NCB-20 cells at 80% confluence. The culture medium was removed and replaced with 10 ml of DMEM supplemented with 10% FCS. Cells were then detached and suspended by repeated passage of the medium through a 2 mm gauge needle. Cells were then counted in a hemocytometer. The final suspension was adjusted to a cell density of 3.10^4 cells/ml in DMEM medium supplemented with 10% FCS and 1 mM cAMP. Petri dishes were seeded with 2 ml of this suspension and incubated at 37° C. in a moisture-saturated CO2 atmosphere. Cells were used four days after inoculation.
The culture medium of 4-day NCB-20 cell cultures differentiated in cAMP was replaced by one of the buffer solutions described hereinabove (Krebs with or without Na^+, to respectively evaluate Na^+-dependent active transport and passive transport, which occurs mainly through diffusion) according to the type of experiment planned. Culture dishes were placed in a water bath at 37° C. for 10 minutes. The buffer was then replaced by the same buffer solution containing [^3H]-XA and XA at concentrations ranging from […]. [^3H]-XA was present at very low concentration and served only as a tracer of the cold (non-radiolabelled) XA. After 1 minute of incubation, the solutions were aspirated and the cells washed three times for 10 seconds with 1 ml of the same buffer (Krebs with or without Na^+), kept on ice. Active transport requires energy (ATP) and is markedly slowed at temperatures below 37° C. The washed cell layer was frozen in dishes then, the next day, distilled water was added to obtain a solution of cellular debris containing the intracellular radiolabel ([^3H]-XA). Freezing facilitated homogenization by repeated passage of the solution through a pipette. A 900 μl aliquot was added to scintillation fluid (Rotiszint®, 4 ml). The remainder of the solution was sampled to assay protein by the BCA method (Uptima). The radioactivity measured in the scintillation counter was converted by means of a suitable calibration curve into picomoles of XA taken up by the cells per mg of protein.
For each incubation time, transport was measured on nine dishes of NCB-20 cells with Na^+ and without Na^+. Ten different time points were studied: 0-10-30 seconds and 1, 2, 3, 5, 8, 10, 12 minutes. Four different experiments were carried out.
For each XA concentration, XA transport was measured on nine dishes of NCB-20 cells with Na^+ and nine dishes without Na^+. Seven different concentrations were tested: 1-5-12.5-25-50-100-200 μM. Four independent experiments were carried out.
Four milliliters of scintillator were added to the tubes containing 900 μl of the cell suspension obtained. The control tube contained 900 μl of doubly-distilled water, and the tubes used to measure specific activity contained 10 μl of the radioactive solutions used as reagent during the experiment and 890 μl of doubly-distilled water. The tubes were closed, vortexed and left overnight at 4° C. before being counted in the scintillation counter. This count measures intracellular radioactivity which is directly proportional to the quantity of XA that entered the cell through passive or active transport. To calculate the amount of active transport, passive transport (Krebs without Na^+) is simply subtracted from total transport (Krebs with Na^+).
Other endogenous molecules which might be transported by the XA transporter were tested. […] The results are shown in the histogram in FIG. 34 as the percentage entering the cells relative to transport in the presence of radiolabelled XA alone (=100%).

For data set [4], the system named is xanthurenic acid binding site(s). In words: [3H]-XA binding to synaptic membranes, without ions. Details: species or system rat.
Data set [5] has as its system rat. In words: Social interactions between two congeners. Particulars: in vivo. From the text: This tendency was confirmed by a test evaluating social interactions between two congeners (Ramos et al., Behav. Brain Res., 1997, 85: 57–69).
Data set [6] concerns rat. The following applies: in vivo.
The subject of data set [7] is rat. Particulars: in vivo; cited from earlier work.
The test system of data set [8] is rat. Particulars: in vivo; cited from earlier work. This is another data set of the same source.

With `O=C(O)c1cc(O)c2cccc(O)c2n1` [XA, xanthurenic acid], in data set [1], the “decrease in GLU release” value was determined as 37%. For the same compound, in the data set with rat [2], the “controlateral rotations induced by apomorphine” value is “did not antagonize; also recorded: did not modify the number of controlateral rotations” and the “ipsilateral rotations induced by amphetamine” value is on record as “had no effect”. In addition, in data set [3], the “factor of increase of current amplitude at the peak of the transient current” value came out at 5 factor; the “factor of increase of current amplitude, on average” value is 5.0±1.7 factor; the “inversion potential, onset of the response” value is listed as −16.5 mV; the “inversion potential, second phase of the response” value was −4.2 mV. The mean outflux current result in data set [3] was “considerably increased”. Further, in the data set on XA transport system, the “increase of transport in the presence of sodium” value is reported as “about 20%”. Further, the Km (usually the substrate concentration at which the rate is half of its maximum) in the data set on XA transport system (read-out: Km of intracellular transport) stood at 105 µM. In data set [4] (pH 7.4), the “kob (observed association rate)” value came to 0.53 ± 0.16 min⁻¹ and the “time to binding equilibrium” value lay within 10 to 15 min. Besides, in data set [4] (pH 7.4, read-out: Kd (saturation experiment)), the Kd was 743 nM. Also, the half-maximal inhibitory concentration (IC50) (commonly the concentration that gives 50% inhibition) in data set [4] (read-out: IC50, two site binding model, first site) turned out to be 300 nM. Also, the IC50 in data set [4] (read-out: IC50, two site binding model, second site) was 57000 nM. For the same compound, the Kd in [4] (read-out: Kd=koff/kon) was around 330 nM. In the data set on rat [5], the “duration of social interactions” value is given as “significant increase in the duration of social interactions; also recorded: induces an increase in the duration of social interactions” and the “sedation in the social interaction test” value is given as “significant sedative effect”. For the same compound, in the data set with rat [6], the “amplitude of the EEG waves” value was “reduction in the amplitude of the EEG waves” and the “decrease in body temperature” value was −0.5 to −2 °C. Also, in the data set on rat [7], the ECG result is “does not modify the ECG”. Also, the “analgesic effect in hotplate and tail flick tests” value with rat [8] is given as “analgesic effect”.
